Experiments:
Assay type in all cases: cell-based
[1] = test system: NCI-H929 (CD70 negative) cells; experiment: In vitro cytotoxicity in CD70 negative NCI-H929 cells (CellTiter-Glo 2.0, 4 days); details: Homo sapiens, 96 h; for Emax at 0.025 µM: maximal killing at 25 nM
Description: (§1) Small molecule duocarmycin analogs (compounds 4, 13, 15, 17 and 38) and anti-CD70 ADCs (anti-CD70-12, anti-CD70-14, anti-CD70-16 and anti-CD70-18) were evaluated for cytotoxicity. Briefly, 786-0 (CD70 positive) cells were seeded into 96-well clear bottom white plate at 1,000 cells/well and incubated overnight in a 37° C. and 5% CO2 incubator. NCI-H929 (CD70 negative) cells were seeded 30,000 cells/well just before the time of treatment of test articles. The serially diluted small molecule drugs or anti-CD70 ADCs were added to the wells and the plates were incubated for 4 days in a 37° C. and 5% CO2 incubator. At the end of incubation, CellTiter-Glo2.0 Reagent (Promega, Madison, WI) was added to the room temperature equilibrated plates and luminescence was measured in a SpectraMax M5E plate reader. The relative viability was calculated as a percentage of untreated cells. The half-maximal inhibitory concentration (IC50) was determined by a nonlinear 4-parameter dose-response curve fitting using GraphPad Prism (GraphPad Software, San Diego, CA). The maximal killing (Emax) was determined by subtracting the % viability at the indicated dose from 100%.

[2] = test system: 786-O (CD70 positive) cells; experiment: In vitro cytotoxicity in CD70 positive 786-O cells (CellTiter-Glo 2.0, 4 days); details: Homo sapiens; for Emax at 0.025 µM: maximal killing at 25 nM
Description: as §1

[3] = test system: SNU449 (GPC3 negative) cells; experiment: In vitro cytotoxicity in GPC3 negative SNU449 cells (CellTiter-Glo 2.0, 3 days); details: Homo sapiens, SNU-449, 72 h; for Emax at 0.03 µM: maximal killing at 30 nM
Description: (§2) Anti-GPC3 ADCs were prepared via conjugation of GPC3 clone 1 mAb containing non-natural amino acid pAF with each of compounds 12, 14, 16 and 18. The corresponding ADCs (hereinafter, anti-GPC3-12, anti-GPC3-14, anti-GPC3-16 and anti-GPC3-18 respectively) and small molecule duocarmycin analogs (compounds 15 and 17) were evaluated for cytotoxicity. Briefly, HepG2 and SNU449 cells were seeded into 96-well white opaque plate at 3,000 cells/well and incubated overnight in a 37° C. and 5% CO2 incubator. The serially diluted small molecule drugs or anti-GPC3 ADCs were added to the wells and the plates were incubated for 3 days in a 37° C. and 5% CO2 incubator. At the end of incubation, CellTiter-Glo2.0 Reagent (Promega, Madison, WI) was added to the room temperature equilibrated plates and luminescence was measured in a SpectraMax M5E plate reader. The relative viability was calculated as a percentage of untreated cells. The half-maximal inhibitory concentration (IC50) was determined by a nonlinear 4-parameter dose-response curve fitting using GraphPad Prism (GraphPad Software, San Diego, CA). The maximal killing (Emax) was determined by subtracting the % viability at the indicated dose from 100%.

[4] = test system: HepG2 (GPC3 positive) cells; experiment: In vitro cytotoxicity in GPC3 positive HepG2 cells (CellTiter-Glo 2.0, 3 days); details: Homo sapiens, 72 h; for Emax at 0.03 µM: maximal killing at 30 nM
Description: as §2

[5] = 786-0, 96 h, 786-O (CD70 Positive), 4 days

SMILES	IC50 [1]	Emax at 0.025 µM [1]	IC50 [2, 5]	Emax at 0.025 µM [2, 5]	IC50 [3]	Emax at 0.03 µM [3]	IC50 [4]	Emax at 0.03 µM [4]	IC50 ([2]; 786-0 (CD70-positive), first test of benchmark free drug and ADC)
COc1cc2cc(C(=O)N3C[C@@H](CCl)c4c3cc(O)c3[nH]c(C(=O)N5CCc6ccccc65)cc43)[nH]c2c(OC)c1OC [Compound 4, (S)-(8-(chloromethyl)-4-hydroxy-6-(5,6,7-trimethoxy-1H-indole-2-carbonyl)-3,6,7,8-tetrahydropyrrolo[3,2-e]indol-2-yl)(indolin-1-yl)methanone]	0.804 nM	99.7%	0.0089 nM	99%	–	–	–	–	–
COc1cc2cc(C(=O)N3C[C@@H](CCl)c4c3cc(O)c3[nH]c(C(=O)N5CCc6cc(OCCN7CCOCC7)ccc65)cc43)[nH]c2c(OC)c1OC [Compound 17]	2.59 nM	97.6%	0.0179 nM	99.3%	0.245 nM	94.2%	0.217 nM	97.6%	–
COc1cc2cc(C(=O)N3C[C@@H](CCl)c4c3cc(O)c3[nH]c(C(=O)N5CCc6ccncc65)cc43)[nH]c2c(OC)c1OC [Compound 15]	9.12 nM	82.4%	0.0626 nM	98.1%	0.427 nM	91.1%	0.41 nM	96.5%	–
COC(=O)c1cc2c3c(cc(O)c2[nH]1)N(C(=O)c1cc2cc(OC)c(OC)c(OC)c2[nH]1)C[C@H]3CCl [Compound 39, (S)-seco-duocarmycin SA, reference compound]	–	–	–	–	–	–	–	–	0.065 nM
COc1cc2c(cc1OC)N(C(=O)c1cc3c4c(cc(O)c3[nH]1)N(C(=O)c1cc3cc(OC)c(OC)c(OC)c3[nH]1)C[C@H]4CCl)CC2 [Compound 13]	1.79 nM	99.5%	0.0166 nM	99.2%	–	–	–	–	–
COc1cc2cc(C(=O)N3C[C@@H](CCl)c4c3cc(O)c3ccccc43)[nH]c2c(OC)c1OC [Compound 38, reference compound]	0.791 nM	99.5%	0.561 nM	97.4%	–	–	–	–	–
